Reference: the NIST ThermoML archive (doi:10.1016/j.fluid.2014.11.020)
± gives the expanded uncertainty stated by the source.

Test: activity coefficient (dimensionless); of the first substance listed, at infinite dilution; xn = mol fraction of the nth substance listed
Settings: Liquid, Chromatography, x1 = 0

Row | SMILES | activity coefficient (323.15 K) | activity coefficient (333.15 K) | activity coefficient (343.15 K)
1 | CCCCCCCCCCCCC [tridecane] + CCCOC[n+]1ccn(C)c1.O=S(=O)([N-]S(=O)(=O)C(F)(F)F)C(F)(F)F | 201 ± 14 | 165 ± 11 | 147 ± 10
2 | CCCCCCCCCC [decane] + CCCOC[n+]1ccn(Cc2ccccc2)c1.O=S(=O)([N-]S(=O)(=O)C(F)(F)F)C(F)(F)F | 28.8 ± 2 | 23.2 ± 1.6 | 21.1 ± 1.4
3 | C[N+](=O)[O-] [nitromethane] + CCCOC[n+]1ccc(N(C)C)cc1.O=S(=O)([N-]S(=O)(=O)C(F)(F)F)C(F)(F)F | 0.54 ± 0.04 | 0.55 ± 0.04 | 0.54 ± 0.04
4 | c1ccsc1 [thiophene] + CCCCCCCCn1cc[n+](COCCC)c1C.O=S(=O)([N-]S(=O)(=O)C(F)(F)F)C(F)(F)F | 0.57 ± 0.04 | 0.52 ± 0.04 | 0.56 ± 0.04
5 | CCCCCCCC [octane] + CCCOC[n+]1ccn(C)c1.O=S(=O)([N-]S(=O)(=O)C(F)(F)F)C(F)(F)F | 34.1 ± 2.3 | 29.7 ± 2 | 26.4 ± 1.8
6 | C[N+](=O)[O-] [nitromethane] + CCCOC[n+]1ccn(Cc2ccccc2)c1.O=S(=O)([N-]S(=O)(=O)C(F)(F)F)C(F)(F)F | 0.46 ± 0.04 | 0.4 ± 0.03 | 0.4 ± 0.03
7 | ClCCl [dichloromethane] + CCCOC[n+]1ccn(Cc2ccccc2)c1.N#C[N-]C#N | 0.58 ± 0.04 | 0.63 ± 0.04 | 0.68 ± 0.05
8 | CCOCC [diethyl ether] + CCCOC[n+]1ccn(Cc2ccccc2)c1.F[B-](F)(F)F | 6.03 ± 0.41 | 5.79 ± 0.39 | –
9 | CC(C)OC(C)C [diisopropyl ether] + Cn1cc[n+](COCCCOC[n+]2ccn(C)c2)c1.O=S(=O)([N-]S(=O)(=O)C(F)(F)F)C(F)(F)F.O=S(=O)([N-]S(=O)(=O)C(F)(F)F)C(F)(F)F | 6.31 ± 0.43 | 6.51 ± 0.44 | 5.54 ± 0.38
10 | ClC(Cl)Cl [trichloromethane] + CCCOC[n+]1ccc(N(C)C)cc1.O=S(=O)([N-]S(=O)(=O)C(F)(F)F)C(F)(F)F | 0.71 ± 0.05 | 0.75 ± 0.05 | 0.79 ± 0.05
11 | CCC(C)CC [3-methylpentane] + CCCOC[n+]1ccn(Cc2ccccc2)c1.O=S(=O)([N-]S(=O)(=O)C(F)(F)F)C(F)(F)F | 8.01 ± 0.55 | 6.59 ± 0.45 | 5.91 ± 0.4
12 | CC(C)OC(C)C [diisopropyl ether] + CCCOC[n+]1ccn(Cc2ccccc2)c1.N#C[N-]C#N | 12.8 ± 0.87 | 12.1 ± 0.83 | 12 ± 0.82
13 | CCC(C)=O [butanone] + CN(C)c1cc[n+](COCCCOC[n+]2ccc(N(C)C)cc2)cc1.O=S(=O)([N-]S(=O)(=O)C(F)(F)F)C(F)(F)F.O=S(=O)([N-]S(=O)(=O)C(F)(F)F)C(F)(F)F | 0.44 ± 0.04 | 0.41 ± 0.03 | 0.38 ± 0.03
14 | CCC(C)CC [3-methylpentane] + CCCCCCCCn1cc[n+](COCCCOC[n+]2ccn(CCCCCCCC)c2C)c1C.N#C[N-]C#N.N#C[N-]C#N | 3.48 ± 0.24 | – | –
15 | C#CCCCCC [1-heptyne] + CCCCCCCCn1cc[n+](COCCC)c1C.N#C[N-]C#N | 2.11 ± 0.14 | 2.09 ± 0.14 | –
16 | CCCCO [butan-1-ol] + CN(C)c1cc[n+](COCCCOC[n+]2ccc(N(C)C)cc2)cc1.O=S(=O)([N-]S(=O)(=O)C(F)(F)F)C(F)(F)F.O=S(=O)([N-]S(=O)(=O)C(F)(F)F)C(F)(F)F | 1.95 ± 0.13 | 1.64 ± 0.11 | 1.58 ± 0.1
17 | CCCCCC [hexane] + CCCCCCCCn1cc[n+](COCCCOC[n+]2ccn(CCCCCCCC)c2C)c1C.N#C[N-]C#N.N#C[N-]C#N | 8.9 ± 0.6 | – | –
18 | CCCCO [butan-1-ol] + Cn1cc[n+](COCCCOC[n+]2ccn(C)c2)c1.O=S(=O)([N-]S(=O)(=O)C(F)(F)F)C(F)(F)F.O=S(=O)([N-]S(=O)(=O)C(F)(F)F)C(F)(F)F | 2.02 ± 0.14 | 1.85 ± 0.12 | 1.64 ± 0.11
19 | Cc1ccccc1C [1,2-dimethylbenzene] + N#C[N-]C#N.N#C[N-]C#N.c1ccc(Cn2cc[n+](COCCCOC[n+]3ccn(Cc4ccccc4)c3)c2)cc1 | 7.13 ± 0.49 | 6.87 ± 0.47 | 6.71 ± 0.46
20 | CC(C)O [propan-2-ol] + CCCCCCCCn1cc[n+](COCCCOC[n+]2ccn(CCCCCCCC)c2C)c1C.N#C[N-]C#N.N#C[N-]C#N | 0.4 ± 0.03 | 0.38 ± 0.03 | 0.38 ± 0.03
21 | CCC(C)CC [3-methylpentane] + CCCCCCCCn1cc[n+](COCCC)c1C.N#C[N-]C#N | 6.65 ± 0.45 | 5.7 ± 0.39 | 6.25 ± 0.43
22 | ClCCl [dichloromethane] + CN(C)c1cc[n+](COCCCOC[n+]2ccc(N(C)C)cc2)cc1.O=S(=O)([N-]S(=O)(=O)C(F)(F)F)C(F)(F)F.O=S(=O)([N-]S(=O)(=O)C(F)(F)F)C(F)(F)F | 0.52 ± 0.04 | 0.54 ± 0.04 | 0.56 ± 0.04

Row | SMILES | activity coefficient (323.15 K) | activity coefficient (333.15 K) | activity coefficient (343.15 K)
23 | CCCCCCCCCCCCC [tridecane] + CCCOC[n+]1ccn(C)c1.N#C[N-]C#N | 1150 ± 79 | 1030 ± 71 | 916 ± 63
24 | CCO [ethanol] + CCCOC[n+]1ccn(Cc2ccccc2)c1.N#C[N-]C#N | 0.73 ± 0.05 | 0.6 ± 0.04 | 0.59 ± 0.04
25 | CCCO [propan-1-ol] + CCCCCCCCn1cc[n+](COCCCOC[n+]2ccn(CCCCCCCC)c2C)c1C.O=S(=O)([N-]S(=O)(=O)C(F)(F)F)C(F)(F)F.O=S(=O)([N-]S(=O)(=O)C(F)(F)F)C(F)(F)F | 0.72 ± 0.05 | 0.65 ± 0.04 | 0.77 ± 0.05
26 | C1CCCCC1 [cyclohexane] + CCCOC[n+]1ccn(Cc2ccccc2)c1.O=S(=O)([N-]S(=O)(=O)C(F)(F)F)C(F)(F)F | 4.98 ± 0.34 | 4.29 ± 0.29 | 3.99 ± 0.27
27 | Cc1ccccc1 [toluene] + N#C[N-]C#N.N#C[N-]C#N.c1ccc(Cn2cc[n+](COCCCOC[n+]3ccn(Cc4ccccc4)c3)c2)cc1 | 5.08 ± 0.35 | 4.97 ± 0.34 | 4.8 ± 0.33
28 | Cc1ccccc1 [toluene] + CN(C)c1cc[n+](COCCCOC[n+]2ccc(N(C)C)cc2)cc1.O=S(=O)([N-]S(=O)(=O)C(F)(F)F)C(F)(F)F.O=S(=O)([N-]S(=O)(=O)C(F)(F)F)C(F)(F)F | 0.92 ± 0.06 | 0.94 ± 0.06 | 0.96 ± 0.06
29 | C1COCCO1 [1,4-dioxane] + CCCCCCCCn1cc[n+](COCCC)c1C.O=S(=O)([N-]S(=O)(=O)C(F)(F)F)C(F)(F)F | 0.5 ± 0.04 | 0.49 ± 0.04 | 0.49 ± 0.04
30 | CCN(CC)CC [triethylamine] + Cn1cc[n+](COCCCOC[n+]2ccn(C)c2)c1.N#C[N-]C#N.N#C[N-]C#N | 54.6 ± 3.7 | 52.5 ± 3.6 | 50.5 ± 3.5
31 | c1ccncc1 [pyridine] + CCCCCCCCn1cc[n+](COCCC)c1C.O=S(=O)([N-]S(=O)(=O)C(F)(F)F)C(F)(F)F | 0.35 ± 0.03 | 0.34 ± 0.03 | 0.3 ± 0.03
32 | CCOCC [diethyl ether] + CCCCCCCCn1cc[n+](COCCC)c1C.O=S(=O)([N-]S(=O)(=O)C(F)(F)F)C(F)(F)F | 1.13 ± 0.07 | 1.11 ± 0.07 | –
33 | CCCCCC [hexane] + CCCOC[n+]1ccc(N(C)C)cc1.O=S(=O)([N-]S(=O)(=O)C(F)(F)F)C(F)(F)F | 11.9 ± 0.81 | 11 ± 0.75 | 10.1 ± 0.69
34 | Cc1ccccc1C [1,2-dimethylbenzene] + CCCOC[n+]1ccn(C)c1.F[B-](F)(F)F | 9.13 ± 0.62 | 8.97 ± 0.61 | 8.93 ± 0.61
35 | CCCCCCCCCCC [undecane] + Cn1cc[n+](COCCCOC[n+]2ccn(C)c2)c1.O=S(=O)([N-]S(=O)(=O)C(F)(F)F)C(F)(F)F.O=S(=O)([N-]S(=O)(=O)C(F)(F)F)C(F)(F)F | 193 ± 13 | 191 ± 13 | 162 ± 11
36 | c1ccccc1 [benzene] + Cn1cc[n+](COCCCOC[n+]2ccn(C)c2)c1.O=S(=O)([N-]S(=O)(=O)C(F)(F)F)C(F)(F)F.O=S(=O)([N-]S(=O)(=O)C(F)(F)F)C(F)(F)F | 0.94 ± 0.06 | 0.94 ± 0.06 | 0.9 ± 0.06
37 | CC#N [acetonitrile] + Cn1cc[n+](COCCCOC[n+]2ccn(C)c2)c1.O=S(=O)([N-]S(=O)(=O)C(F)(F)F)C(F)(F)F.O=S(=O)([N-]S(=O)(=O)C(F)(F)F)C(F)(F)F | 0.28 ± 0.03 | 0.28 ± 0.03 | 0.24 ± 0.03
38 | CCCCO [butan-1-ol] + CCCOC[n+]1ccn(C)c1.N#C[N-]C#N | 1.37 ± 0.09 | 1.32 ± 0.09 | 1.27 ± 0.08
39 | CCC[N+](=O)[O-] [1-nitropropane] + Cn1cc[n+](COCCCOC[n+]2ccn(C)c2)c1.O=S(=O)([N-]S(=O)(=O)C(F)(F)F)C(F)(F)F.O=S(=O)([N-]S(=O)(=O)C(F)(F)F)C(F)(F)F | 0.54 ± 0.04 | 0.54 ± 0.04 | 0.53 ± 0.04
40 | CCC(=O)CC [pentan-3-one] + Cn1cc[n+](COCCCOC[n+]2ccn(C)c2)c1.N#C[N-]C#N.N#C[N-]C#N | 3.39 ± 0.23 | 3.49 ± 0.24 | 3.46 ± 0.24
41 | c1ccccc1 [benzene] + CCCCCCCCn1cc[n+](COCCCOC[n+]2ccn(CCCCCCCC)c2C)c1C.N#C[N-]C#N.N#C[N-]C#N | 0.7 ± 0.05 | 0.71 ± 0.05 | 0.71 ± 0.05
42 | Cc1ccccc1 [toluene] + CCCCCCCCn1cc[n+](COCCCOC[n+]2ccn(CCCCCCCC)c2C)c1C.O=S(=O)([N-]S(=O)(=O)C(F)(F)F)C(F)(F)F.O=S(=O)([N-]S(=O)(=O)C(F)(F)F)C(F)(F)F | 0.54 ± 0.04 | 0.53 ± 0.04 | 0.54 ± 0.04
43 | CC1CCCCC1 [methylcyclohexane] + CCCCCCCCn1cc[n+](COCCC)c1C.N#C[N-]C#N | 5.11 ± 0.35 | 4.86 ± 0.33 | 4.81 ± 0.33
